Experimental data: patent US20230190760A1, “ADVANTAGEOUS THERAPIES FOR DISORDERS MEDIATED BY IKAROS OR AIOLOS” (C4 Therapeutics, Inc., priority 2020, published 2023)

How the values were obtained:
IKZF1 and IKZF3 = IKZF1 and IKZF3 in blood cells of a monkey by flow cytometry; format: in vivo, cynomolgus monkey; conditions: 30 μg/kg oral gavage, 4-hour and 24-hour timepoint
Protocol: One fasted male cynomolgus monkey was administered Compound 1 formulated in 1% carboxymethylcellulose sodium+20% PEG400 in citrate buffer at 30 μg/kg by oral gavage. At indicated timepoints, blood was collected from a peripheral vessel from a restrained, non sedated monkey. 50 uL of whole blood was added to a flow tube with 1 ml PBS, centrifuged for 5 minutes at 400×g and supernatant discarded. Blood was lysed in 1 mL of lysis buffer for 10-15 minutes at room temperature, centrifuged for 5 minutes at 400× and supernatant discarded. PBS (1 mL) was added to each tube, centrifuged for 5 minutes at 400×g and supernatant discarded. PBS (1 mL) was added together with 1 ul of Zombie NIR dye to the white blood cells and incubated for 20 minutes at room temperature. The cells were centrifuged for 5 minutes at 400×g and supernatant discarded. Fixation buffer (1 mL) was added and incubated for 20 minutes at room temperature. Cells were washed with permeabilization buffer (1 mL) and centrifuged for 5 minutes at 400×g and supernatant discarded. […] Cells were washed twice with PBS (1 mL), resuspended in PBS and analyzed analyzed on a BD LSR Fortessa Flow Cytometer. FIG. 24 is a graph of the percent mean fluorescence intensity of IKZF1 and IZKF3 at 4 h and 24 hr post dose compared to the pre-dose sample. […]

[1] = Plasma PK and interconversion in rat; format: in vivo; conditions: Compound 1 30 mg/kg PO
Protocol: Compound 1 was administered to a rat at a concentration of 30 mg/kg PO and monkeys at a concentration of either 60 μg/kg or 100 μg/kg PO. At the indicated timepoints shown in FIG. 25A and FIG. 25B, plasma samples were collected and the Cmax, half-life, and AUC0-inf were determined for both Compound 1 and a metabolite of Compound 1, Compound 14. The percent of Compound 14 was also determined (Table 13). PK values dose normalized to 1 mg/kg. FIG. 25A is a graph measuring the concentration of Compound 1 or Compound 14 over the course of 24 hours in monkeys administered 100 μg/kg or 60 μg/kg of Compound 1. FIG. 25B is a graph measuring the concentration of Compound 1 or Compound 14 over the course of 24 hours in a rat administered 30 mg/kg of Compound 1.

IKZF1/3 [2] = test: Ex vivo IKZF1/3 degradation in PBMC, dog; format: cell-based; conditions: dog cells
Protocol: IKZF1/3 are not degraded in mouse cells treated with thalidomide or its IMiD® analogs because of a single amino acid difference in mouse cereblon compared to human cereblon that causes steric hindrance and prevents recruitment of IKZF1/3. Ex vivo studies were performed in peripheral blood cells (PBMC) of mice, rats, dogs, and monkeys to identify relevant species for IND enabling-toxicity studies based on the degree of IKZF1 degradation by Compound 1. IKZF1 was not degraded in mouse or rat cells by Compound 1, thus, while rat could not be considered a pharmacologically relevant species for human risk assessment, it was chosen as the rodent species for toxicological studies because it is widely used in toxicity testing and a substantial historical toxicology database is available. […] Therefore, cynomolgus monkey was chosen for non-rodent toxicological studies.

Farage = test: Anti-proliferative activity, 96 hours
[3] = system: Caspase 3/7 activity in NCIH929 multiple myeloma cells; test: Apoptosis induction, Caspase 3/7 activity in NCIH929 cells; format: cell-based
Protocol: 30 μL NCIH929 cells were seeded into the 384-well plates in RPMI medium containing 10% FBS and 0.05 mM 2-mercaptoethanol at a cell density of 1000 cells per well. Cells treated in the absence of the test compound were the negative control. Following compound treatment, cells were incubated at 37° C. with 5% CO2 for 72 hr. 30 μL reconstituted Caspase 3/7 Assay detection reagent was added to each well and luminescence was acquired on EnVision™ Multilabel Reader (PerkinElmer, Santa Clara, Calif., USA).

IKZF1 and IRF-4 = test: KI-JK ALCL tumor pharmacodynamic study, western blot (Example 17); format: in vivo, mice; conditions: single dose, 6-hour and 24-hour timepoint
Protocol: A pharmacodynamic study was also conducted in female NOD SCID mice bearing KI-JK ALCL tumors. […] Once tumors reached a volume of 450 mm^3 they were stratified into 3 treatment groups, consisting of 4 mice each.
Mice were sacrificed and tumors harvested at 6 and 24 hours post single dose. Tumors were mechanically homogenized, and protein extracted using RIPA buffer (Sigma Aldrich). Protein concentration was quantified using a Pierce™ BCA Protein Assay Kit, samples were reduced, and equal protein amounts were then loaded onto a western blot gel for analysis. Samples were analyzed for IKZF1 (Invitrogen, PA5-23728) and IRF-4 (CST, 15106) expression. Data is expressed as percentage of IKZF1 or IRF-4 in comparison to the vehicle control and normalized to GAPDH levels to control for protein loading. Error bars represent ±SEM values.

DL-40 ALCL tumors = test: DL-40 ALCL xenograft efficacy (Example 18); format: in vivo, mice; conditions: PO daily for 21 days
Protocol: A xenograft study was conducted in female NOD SCID mice bearing DL-40 ALCL tumors.
(§1) Data are expressed as MTV±SEM.

[4] = system: NCI-H929 multiple myeloma tumors; test: NCI-H929 multiple myeloma xenograft, NOD SCID mice (Example 13); format: in vivo
Protocol: Compound 1 efficacy in two multiple myeloma cell lines (NC-H929) and (RPMI-8226) was evaluated at four different doses: 3 μg/kg, 10 μg/kg, 30 μg/kg, and 100 μg/kg. Compound 1 was administered QD (every day) orally (PO). […]
For the NCI-H929 cells, the xenograft study was conducted in female NOD SCID mice bearing NCI-H929 multiple myeloma tumors.
Statistical analysis was performed using two-way analysis of variance (ANOVA). Data are expressed as MTV±SEM.

RPMI 8226 = test: Anti-proliferative activity, 96 hours; conditions: Homo sapiens, RPMI-8226, 96 h
IKZF1/3 [5] = test: Biomarker assessment in MM and ALCL tumor bearing studies; format: in vivo
[6] = system: mantel cell lymphoma (MCL) cell lines; test: Anti-cancer activity in MCL cell lines; format: cell-based; conditions: four of six lines tested were responsive; read-out: mean IC50 among the responsive lines
KI-JK ALCL tumors = test: KI-JK ALCL xenograft efficacy (Example 17); format: in vivo, mice; conditions: 30 or 100 μg/kg PO daily for 21 days
Protocol: A xenograft study was conducted in female NOD SCID mice bearing KI-JK ALCL tumors.
as §1

O=C1CC[C@H](N2C(=O)c3cccc4c(Cc5ccc(CN6CCOCC6)cc5)ccc2c34)C(=O)N1 (single isomer, unassigned) [Compound 1]
levels of IKZF1 and IKZF3 versus pre-dose (IKZF1 and IKZF3): smaller
AUC(0-inf) ([1]; dose normalized to 1 mg/kg): 784 ng·h/mL
Cmax ([1]; dose normalized to 1 mg/kg): 110 ng/mL
half-life ([1]; read-out: T ½ (converted)): 2.3 h
effect on IKZF1/3 (IKZF1/3 [2]): no effect
IC50 (Farage): 56.3 nM
Maximum caspase 3/7 activity ([3]; 72 hours): > 2 fold
EC50 ([3]; Homo sapiens, NCI-H929, 72 h, read-out: EC50, caspase 3/7 activity): 0.58 nM
percentage of IKZF1 and IRF-4 compared to pomalidomide (IKZF1 and IRF-4): smaller
tumor volume versus pomalidomide (DL-40 ALCL tumors): more successful at decreasing tumor volume than pomalidomide
Statistical Significance Compared to Vehicle ([4]; 3 μg/kg PO QD): 0.04
Statistical Significance Compared to Vehicle ([4]; 10 μg/kg PO QD): 0.0002
Statistical Significance Compared to Vehicle ([4]; 30 μg/kg PO QD): 0.0004
Statistical Significance Compared to Vehicle ([4]; 100 μg/kg PO QD): 0.0004
tumor volume versus pomalidomide 3000 μg/kg ([4]; 3, 10, 30 and 100 μg/kg, NCI-H929 and RPMI-8226): reduced tumor volume more than pomalidomide
IC50 (RPMI 8226): 0.698 nM
degradation of both IKZF1/3 (IKZF1/3 [5]): > 75%
duration of IKZF1/3 degradation (IKZF1/3 [5]): 24 h
IC50 [6]: 13 nM
tumor volume (KI-JK ALCL tumors): decreased
